Measured values from EP0207358A2, “Growth-promoting agent” (BAYER AG, priority 1985, dated 1987).

system: Weibliche Laborratten; assay: Rat feeding trial (Ratten-Fütterungsversuch); assay type: in vivo; settings: female SPF Wistar rats 90-110 g; active substance mixed into standard rat feed ad lib; 13-day trial; compared with control group on feed without active substance
Source text: Weibliche Laborratten 90-110 g schwer vom Typ SPF Wistar (Züchtung Hagemann) werden ad lib mit Standard-Rattenfutter, das mit der gewünschten Menge Wirkstoff versetzt ist, gefüttert. Jeder Versuchsansatz wird mit Futter der identischen Charge durchgeführt, so daß Unterschiede in der Zusammensetzung des Futters die Vergleichbarkeit der Ergebnisse nicht beeinträchtigen können.
Die Ratten erhalten Wasser ad lib.
Jeweils 12 Ratten bilden eine Versuchsgruppe und werden mit Futter, das mit der gewünschten Menge Wirkstoff versetzt ist, gefüttert. Eine Kontrollgruppe erhält Futter ohne Wirkstoff. Das durchschnittliche Körpergewicht sowie die Streuung in den Körpergewichten der Ratten ist in jeder Versuchsgruppe gleich, so daß eine Vergleichbarkeit der Versuchsgruppen untereinander gewährleistet ist.
Gewichtszunahme und Futterverbrauch werden während des 13-tägigen Versuches bestimmt.

| Structure (SMILES) | Gewichtszunahmen im Vergleich zur Kontrolle |
| --- | --- |
| CCOC(=O)c1c(NC(=O)N[C@@H](CCSC)C(=O)OC)sc(-c2ccccc2)c1C [Beispiel 1] | deutliche Gewichtszunahmen |
| CC[C@H](C)[C@H](NC(=O)Nc1cccc2ccccc12)C(=O)O [Beispiel 2] | deutliche Gewichtszunahmen |
| COC(=O)[C@H](Cc1c[nH]c2ccccc12)NC(=O)Nc1cccc2ccccc12 [Beispiel 3] | deutliche Gewichtszunahmen |
